Measured values taken from ChEMBL document CHEMBL4152325, “Tacripyrimidines, the first tacrine-dihydropyrimidine hybrids, as multi-target-directed ligands for Alzheimer's disease” (Eur J Med Chem, 2018).
Active and inactive are the calls of the source. No cut-off for these calls is given here.

Experiments:
[1] = in vitro; conditions: human, HepG2 cells
Description: Cytotoxicity against human HepG2 cells assessed as cell viability at 100 uM after 24 hrs by CellTiter-Glo luminescence assay relative to control

[2] = biological target: T1, Acetylcholinesterase (Homo sapiens, UniProt P22303); experiment: Inhibition of recombinant human AChE expressed in HEK293 cells using acetylthiocholine as substrate pretreated for 20 mins followed by substrate addition by Ellman's method; assay type: cell-based
T1 sequence (P22303 whole entry): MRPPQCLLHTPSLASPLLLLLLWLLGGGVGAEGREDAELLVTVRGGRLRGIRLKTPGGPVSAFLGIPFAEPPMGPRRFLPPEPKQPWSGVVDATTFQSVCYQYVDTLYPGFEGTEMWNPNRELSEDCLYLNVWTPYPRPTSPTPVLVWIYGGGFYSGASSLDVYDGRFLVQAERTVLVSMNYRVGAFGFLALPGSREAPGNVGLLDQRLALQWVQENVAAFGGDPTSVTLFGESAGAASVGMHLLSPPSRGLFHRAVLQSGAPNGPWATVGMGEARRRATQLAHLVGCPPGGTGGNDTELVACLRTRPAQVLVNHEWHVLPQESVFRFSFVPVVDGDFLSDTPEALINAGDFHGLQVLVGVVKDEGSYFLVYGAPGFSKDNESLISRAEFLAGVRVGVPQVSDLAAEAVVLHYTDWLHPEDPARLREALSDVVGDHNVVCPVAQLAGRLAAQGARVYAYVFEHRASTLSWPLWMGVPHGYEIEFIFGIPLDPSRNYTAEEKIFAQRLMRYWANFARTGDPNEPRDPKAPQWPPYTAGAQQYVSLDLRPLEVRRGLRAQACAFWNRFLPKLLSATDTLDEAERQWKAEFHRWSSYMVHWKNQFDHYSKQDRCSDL

[3] = biological target: Cholinesterase (Homo sapiens, UniProt P06276); experiment: Inhibition of recombinant human serum BChE using butyrylthiocholine as substrate pretreated for 20 mins followed by substrate addition by Ellman's method
Chain of Cholinesterase (P06276 whole entry): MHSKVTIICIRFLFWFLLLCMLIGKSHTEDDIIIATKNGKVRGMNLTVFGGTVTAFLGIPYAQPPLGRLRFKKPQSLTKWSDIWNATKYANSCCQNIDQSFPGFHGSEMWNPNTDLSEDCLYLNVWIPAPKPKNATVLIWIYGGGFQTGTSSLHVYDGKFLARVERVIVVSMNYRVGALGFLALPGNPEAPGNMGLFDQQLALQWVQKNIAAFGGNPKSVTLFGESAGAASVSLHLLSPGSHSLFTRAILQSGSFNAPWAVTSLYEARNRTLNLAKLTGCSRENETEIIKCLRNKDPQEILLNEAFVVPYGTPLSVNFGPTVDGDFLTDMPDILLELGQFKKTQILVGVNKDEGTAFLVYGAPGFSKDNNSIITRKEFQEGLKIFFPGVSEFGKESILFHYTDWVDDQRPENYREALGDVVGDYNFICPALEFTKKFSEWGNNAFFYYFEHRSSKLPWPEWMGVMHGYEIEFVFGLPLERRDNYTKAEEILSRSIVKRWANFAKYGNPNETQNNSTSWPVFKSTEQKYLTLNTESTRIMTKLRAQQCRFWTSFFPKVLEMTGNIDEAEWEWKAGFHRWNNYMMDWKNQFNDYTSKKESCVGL

[4] = in vitro; conditions: human, HepG2 cells; remark: listed apart in the source
Description: Cytotoxicity against human HepG2 cells assessed as cell viability at 300 uM after 24 hrs by CellTiter-Glo luminescence assay relative to control

[5] = in vitro; conditions: human, HepG2 cells; remark: listed apart in the source
Description: Cytotoxicity against human HepG2 cells assessed as cell viability at 10 uM after 24 hrs by CellTiter-Glo luminescence assay relative to control

[6] = biological target: Amyloid-beta precursor protein (Homo sapiens) (UniProt P05067); experiment: Inhibition of HFIP-pretreated amyloid beta (1 to 42 residues) (unknown origin) self aggregation at 50 uM after 24 hrs by ThT-based fluorometric method relative to control
Chain of Amyloid-beta precursor protein (Homo sapiens) (P05067 whole entry, the tested form may be a part): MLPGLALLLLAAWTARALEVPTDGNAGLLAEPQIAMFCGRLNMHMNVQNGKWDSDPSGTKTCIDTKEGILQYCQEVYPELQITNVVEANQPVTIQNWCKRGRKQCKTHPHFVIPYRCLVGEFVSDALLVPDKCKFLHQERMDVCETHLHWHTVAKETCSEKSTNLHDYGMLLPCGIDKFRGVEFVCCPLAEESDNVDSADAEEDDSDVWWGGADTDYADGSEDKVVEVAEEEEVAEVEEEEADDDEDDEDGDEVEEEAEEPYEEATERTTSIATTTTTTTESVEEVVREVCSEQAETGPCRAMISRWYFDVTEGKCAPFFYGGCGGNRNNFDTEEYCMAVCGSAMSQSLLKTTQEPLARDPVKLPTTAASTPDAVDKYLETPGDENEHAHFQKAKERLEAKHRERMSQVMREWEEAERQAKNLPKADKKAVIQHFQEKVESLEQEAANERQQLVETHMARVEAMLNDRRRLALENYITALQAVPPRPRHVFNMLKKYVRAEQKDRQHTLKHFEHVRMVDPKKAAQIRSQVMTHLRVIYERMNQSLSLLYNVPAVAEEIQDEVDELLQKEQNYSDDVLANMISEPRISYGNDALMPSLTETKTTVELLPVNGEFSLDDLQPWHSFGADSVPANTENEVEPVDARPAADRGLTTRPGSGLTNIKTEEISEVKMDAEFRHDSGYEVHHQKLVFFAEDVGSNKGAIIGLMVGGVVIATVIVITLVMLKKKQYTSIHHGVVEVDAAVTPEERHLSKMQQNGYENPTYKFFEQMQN

[7] = biological target: T1, Acetylcholinesterase; experiment: Non-competitive inhibition of recombinant human AChE expressed in HEK293 cells using varying levels of acetylthiocholine as substrate by Lineweaver-burk double reciprocal plot analysis; assay type: cell-based
[8] = biological target: T1, Acetylcholinesterase; experiment: Non-competitive inhibition of recombinant human AChE expressed in HEK293 cells assessed as enzyme-substrate-inhibitor complex using varying levels of acetylthiocholine as substrate by Dixon plot analysis
[9] = biological target: T1, Acetylcholinesterase; experiment: Potency index, ratio of tacrine IC50 to test compound IC50 for recombinant human AChE expressed in HEK293 cells; assay type: cell-based

Structure (SMILES)	viability at 24 h, 100 µM [1]	IC50 [2]	IC50 [3]	viability at 24 h, 300 µM [4]	viability at 24 h, 10 µM [5]	inhibition [6]	inhibition [7]	Ki [8]	Ratio IC50 [9]
Cc1ccc(C2NC(=S)Nc3nc4c(c(N)c32)CCCC4)cc1 (stereo not drawn)	62%	23.8 µM	3.47 µM	45.2%	90.6%				
Cc1cccc(C2NC(=S)Nc3nc4c(c(N)c32)CCCC4)c1 (stereo not drawn)	82.5%	10.1 µM	2.65 µM	68.1%	97.6%				
Nc1c2c(nc3c1C(c1ccc(F)cc1)NC(=S)N3)CCCC2 (stereo not drawn)	79.1%	31 µM	10 µM	72.5%	104%				
Nc1c2c(nc3c1C(c1ccc(Cl)cc1)NC(=S)N3)CCCC2 (stereo not drawn)	27.9%	5.28 µM	0.372 µM	9%	80%	10%			
Nc1c2c(nc3c1C(c1cccc([N+](=O)[O-])c1)NC(=S)N3)CCCC2 (stereo not drawn)	96.5%	29.8 µM	2.68 µM	82.7%	102%				
CN(C)c1ccc(C2NC(=S)Nc3nc4c(c(N)c32)CCCC4)cc1 (stereo not drawn)	82.5%	24.1 µM	154 µM	78.9%	87.3%				
COc1cccc(C2NC(=S)Nc3nc4c(c(N)c32)CCCC4)c1 (stereo not drawn)	102%	3.05 µM	3.19 µM	97.5%	100%	10%	Active	3880 nM	
COc1ccccc1C1NC(=S)Nc2nc3c(c(N)c21)CCCC3 (stereo not drawn)	81.1%	31.2 µM	11.7 µM	68.1%	98.1%				
Nc1c2c(nc3c1C(c1cccc(Br)c1)NC(=S)N3)CCCC2 (stereo not drawn)	76.8%	0.0373 µM	1.27 µM	62.3%	103%	10%	Active	147 nM	9.4 to 10
Nc1c2c(nc3c1C(c1ccccc1)NC(=S)N3)CCCC2 (stereo not drawn)	97.2%	10.8 µM	5.68 µM	68.2%	105%				
Nc1c2c(nc3c1C(c1ccc4c(c1)OCO4)NC(=S)N3)CCCC2 (stereo not drawn)	91.2%	8.18 µM	37.5 µM	64.1%	103%				
COc1ccc(C2NC(=S)Nc3nc4c(c(N)c32)CCCC4)cc1 (stereo not drawn)	100%	7.64 µM	1.75 µM	77.6%	97.9%				
